Experimental findings from ChEMBL document CHEMBL4732213, “Discovery of novel ceramide analogs with favorable pharmacokinetic properties and combination with AKT inhibitor against colon cancer” (Eur J Med Chem, 2021) are described below.

The term IC50 denotes the midpoint of a concentration-inhibition curve. In general, Cmax refers to the maximum level reached in the sampled fluid or tissue. As a reminder, the AUC(0-t) is the area under the concentration-time curve up to a stated or last time point. Low values mean less exposure, high ones more exposure. The half-life is the time in which the quantity being followed falls by half. High values mean slow decline, low ones rapid decline. One may read the AUC(0-inf) as total exposure, with the tail of the curve extrapolated. Low readings indicate low exposure, high ones high exposure.

Active and inactive are the calls of the source. The rule behind the calls is not given here.

The subject of data set [1] is HT-29. As to the kind of experiment: Synergistic antiproliferative activity against human HT29 cells assessed as combination index at 20 uM after 72 hrs in presence of 5 uM AKT inhibitor MK2206 by Chou-Talalay method. It counts as functional.
Data set [2] can be described thus: Toxicity in BALB/c nude mouse xenografted with human HT-29 cells assessed as effect on body weight at 100 mg/kg/day, ip measured every 3 day by electronic caliper method. The format is organism-based. The settings on record: in vivo, 72 h. For orientation: A xenograft is tissue or cells of one species grown in another, often human tumour cells in immunodeficient mice.

Data set [3] in a line: Antiproliferative activity against human MINO cells measured after 72 hrs by CCK-8 assay. It counts as functional, cell-based. On the technique in general: Tetrazolium assays rely on reduction of a dye to a coloured formazan, in cell work by metabolically active cells.
Data set [4] is described as follows: Cmax in BALB/c mouse at 50 mg/kg, ip. The format is ADME, organism-based. The settings on record: in vivo. Also on record: route intraperitoneal, dose 50 mg/kg.
The nature of data set [5]: Toxicity in BALB/c nude mouse xenografted with human HT-29 cells assessed as effect on body weight at 100 mg/kg/day, ip measured every 3 day in presence of 50 mg/kg AKT inhibitor MK2206 by electronic caliper method. It counts as organism-based. To be noted: in vivo, 72 h.
Data set [6] has as its system T84. The data set is described as follows: Additive antiproliferative activity against human T84 cells assessed as combination index at 5 uM after 72 hrs in presence of 2.5 uM AKT inhibitor MK2206 by Chou-Talalay method. The format is functional.
The subject of data set [7] is HT-29. As to the kind of experiment: Down regulation of CDK4 expression in human HT29 cells at 20 uM incubated for 24 hrs in presence of 10 uM AKT inhibitor MK2206 by Western blotting analysis. It counts as functional, cell-based. (A western blot detects proteins with antibodies after separation by electrophoresis.)
Data set [8] concerns T84. As to the kind of experiment: Synergistic antiproliferative activity against human T84 cells assessed as combination index at 20 uM after 72 hrs in presence of 10 uM AKT inhibitor MK2206 by Chou-Talalay method. It counts as functional.
Data set [9] has as its system T84. The data set is described as follows: Antiproliferative activity against human T84 cells measured after 72 hrs by sulforhodamine B assay. It counts as functional, cell-based. The settings on record: T84, 72 h.
The nature of data set [10]: AUC(0 to t) in BALB/c mouse at 10 mg/kg, iv. It counts as ADME, organism-based. More on the design: dose 10 mg/kg. The settings on record: in vivo.
For another data set, the system named is HCT-116. The data set is described as follows: Antiproliferative activity against human HCT116 cells measured after 72 hrs by sulforhodamine B assay. It counts as functional, cell-based. The settings on record: HCT-116, 72 h.
Data set [11] is described as follows: Half life in BALB/c mouse at 50 mg/kg, ip. To be noted: in vivo. The format is ADME, organism-based.
A further data set deals with Caco-2. As to the kind of experiment: Antiproliferative activity against human Caco2 cells measured after 72 hrs by sulforhodamine B assay. The settings on record: Caco-2, 72 h. It counts as functional, cell-based.
In data set [12] the test system is HT-29. The data set is described as follows: Down regulation of CDK6 expression in human HT29 cells at 20 uM incubated for 24 hrs in presence of 10 uM AKT inhibitor MK2206 by Western blotting analysis. The format is functional, cell-based.
The subject of data set [13] is SW480. The data set is described as follows: Synergistic antiproliferative activity against human SW480 cells assessed as combination index at 20 uM after 72 hrs in presence of 10 uM AKT inhibitor MK2206 by Chou-Talalay method. The format is functional.
Data set [14] has as its system HT-29. As to the kind of experiment: Down regulation of cyclin A expression in human HT29 cells at 20 uM incubated for 24 hrs in presence of 10 uM AKT inhibitor MK2206 by Western blotting analysis. The format is functional, cell-based.
Data set [15] in a line: Antiproliferative activity against human GM00637 cells measured after 72 hrs by sulforhodamine B assay. It counts as cell-based. The settings on record: GM00637, 72 h.
Data set [16] has as its system SW480. As to the kind of experiment: Antiproliferative activity against human SW480 cells measured after 72 hrs by sulforhodamine B assay. It counts as functional, cell-based. The settings on record: SW480, 72 h.
Data set [17] is described as follows: AUC(0 to infinity) in BALB/c mouse at 50 mg/kg, ip. Also on record: time infinity, route intraperitoneal, dose 50 mg/kg. The format is ADME, organism-based. To be noted: in vivo.
The next data set has as its system COLO 205. The data set is described as follows: Antiproliferative activity against human COLO 205 cells measured after 72 hrs by sulforhodamine B assay. To be noted: COLO 205, 72 h. It counts as functional, cell-based.
Data set [18] deals with SW480. The data set is described as follows: Additive antiproliferative activity against human SW480 cells assessed as combination index at 40 uM after 72 hrs in presence of 20 uM AKT inhibitor MK2206 by Chou-Talalay method. It counts as functional.
The next data set has as its system HCT-8. As to the kind of experiment: Antiproliferative activity against human HCT8 cells measured after 72 hrs by sulforhodamine B assay. The settings on record: HCT-8, 72 h. It counts as functional, cell-based.
A short description of data set [19]: AUC(0 to infinity) in BALB/c mouse at 10 mg/kg, iv. It counts as ADME, organism-based. More on the design: route intravenous, time infinity, dose 10 mg/kg. The settings on record: in vivo.

Consider `CCCCCCCOc1ccc(CCC(CO)(CO)NC(C)=O)c2ccccc12`, for which the CI in the data set on HT-29 [1] worked out at 0.77; in the data set with T84 [6] it was 1.1; with T84 [8] it was 0.65; in the data set with SW480 [13] it was 0.62; in the data set on SW480 [18], 0.97. In addition, the Activity entry in [2] and in data set [5] was “Non-Toxic” each time. For the same compound, the IC50 in data set [3] is 13.3 µM; with T84 [9], 14.9 µM; in the data set on HCT-116, 25.8 µM; in the data set with Caco-2, 28 µM; in [15], 47.9 µM; in the data set with SW480 [16], 22.7 µM. The IC50 in the data set on COLO 205 is 18.3 µM; in the data set with HCT-8 it was 21.8 µM. This compound also had a maximum concentration (Cmax) in data set [4] of 6030 ng/mL. In addition, the result with HT-29 [7], in the data set on HT-29 [12] and in the data set with HT-29 [14] was Active. This compound also gave an AUC(0-t) in data set [10] of 3060 ng·h/mL. In data set [11], this compound showed a half-life of 3.3 h. Besides, the AUC(0-inf) in data set [17] is 15700 ng·h/mL; in [19], 3060 ng·h/mL.
